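96-well plates; 48 h exposure; 5 concentrations. Endpoints by linear interpolation between flanking doses. Not reached: highest tested concentration assigned. The concentration for full growth arrest is given as TGI.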
Tests used:
Assay in all cases: growth of human tumour cells (NCI), 48 h
[1] = system: HOP-18 NSCLC
[2] = system: UACC-257 melanoma
[3] = system: LOX IMVI melanoma
[4] = system: SN12C renal
[5] = system: A549 NSCLC
[6] = system: SNB-75 CNS
[7] = system: KM20L2 colon
[8] = system: M14 melanoma
[9] = system: NCI-H522 lung
[10] = system: RPMI-8226 leukemia
[11] = system: UACC-62 melanoma
[12] = system: MALME-3M melanoma
[13] = system: SK-MEL-2 melanoma
[14] = system: K-562 leukemia
[15] = system: HOP-62 NSCLC
[16] = system: OVCAR-8 ovarian
[17] = system: SK-MEL-5 melanoma
[18] = system: HL-60(TB) leukemia
[19] = system: NCI-H226 lung
[20] = system: SK-OV-3 ovarian
[21] = system: SNB-19 CNS
[22] = system: A498 renal
[23] = system: NCI-H23 lung
[24] = system: HT29 colon
[25] = system: DLD-1 colon
[26] = system: SR leukemia
[27] = system: SF-295 CNS
[28] = system: TK-10 renal
[29] = system: MOLT-4 leukemia
[30] = system: HCT-116 colon
[31] = system: LXFL 529 NSCLC
[32] = system: CCRF-CEM leukemia
[33] = system: XF 498 CNS
[34] = system: SK-MEL-28 melanoma
[35] = system: M19-MEL melanoma
[36] = system: UO-31 renal
[37] = system: 786-0 renal
[38] = system: U251 CNS
[39] = system: OVCAR-5 ovarian
[40] = system: NCI-H460 lung
[41] = system: IGROV1 ovarian
[42] = system: HCT-15 colon
[43] = system: DMS 114 small cell lung
[44] = system: SF-539 CNS
[45] = system: RXF 393 renal
[46] = system: HCC-2998 colon
[47] = system: COLO 205 colon
[48] = system: HOP-92 NSCLC
[49] = system: OVCAR-3 ovarian
[50] = system: SW-620 colon
[51] = system: ACHN renal
[52] = system: KM12 colon
[53] = system: SF-268 CNS
[54] = system: EKVX NSCLC
[55] = system: CAKI-1 renal
[56] = system: OVCAR-4 ovarian
[57] = system: DMS 273 small cell lung
[58] = system: SNB-78 CNS

Compound: Clc1ccc(C2SCc3nc4ccccc4n32)c(Cl)c1 (stereo not given)
- TGI [1]: 34.4 µM
- TGI [2]: 22.2 µM
- TGI [3]: 29.4 µM
- TGI [4]: 28.1 µM
- TGI [5]: 28.8 µM
- TGI [6]: 34.8 µM
- TGI [7]: 36.3 µM
- TGI [8]: 28 µM
- TGI [9]: 29.9 µM
- TGI [10]: 41.1 µM
- TGI [11]: 32 µM
- TGI [12]: 32.5 µM
- TGI [13]: 33.8 µM
- TGI [14]: 39.6 µM
- TGI [15]: 27.5 µM
- TGI [16]: 32.1 µM
- TGI [17]: 20.4 µM
- TGI [18]: 28.3 µM
- TGI [19]: 30.4 µM
- TGI [20]: 42.1 µM
- TGI [21]: 33 µM
- TGI [22]: 28.4 µM
- TGI [23]: 25.1 µM
- TGI [24]: 30.4 µM
- TGI [25]: 30.3 µM
- TGI [26]: 39.1 µM
- TGI [27]: 21.1 µM
- TGI [28]: 28.4 µM
- TGI [29]: 34.6 µM
- TGI [30]: 27.6 µM
- TGI [31]: 24.5 µM
- TGI [32]: 40.8 µM
- TGI [33]: 33.6 µM
- TGI [34]: 31.6 µM
- TGI [35]: 28.9 µM
- TGI [36]: 24.9 µM
- TGI [37]: 31.9 µM
- TGI [38]: 32 µM
- TGI [39]: 30.3 µM
- TGI [40]: 34.7 µM
- TGI [41]: 31.5 µM
- TGI [42]: 37.5 µM
- TGI [43]: 22.1 µM
- TGI [44]: 31.4 µM
- TGI [45]: 29.6 µM
- TGI [46]: 28.8 µM
- TGI [47]: 31.5 µM
- TGI [48]: 11 µM
- TGI [49]: 27.3 µM
- TGI [50]: 22 µM
- TGI [51]: 28.7 µM
- TGI [52]: 29.4 µM
- TGI [53]: 31.1 µM
- TGI [54]: 24.9 µM

Compound: Cn1cc(C(=O)NCCC(=N)N)cc1NC(=O)C1=[N+](C)C=C(NC(=O)c2cccc(C(=O)NC3=CC(C(=O)Nc4cc(C(=O)NCCC(=N)N)cn4C)=[N+](C)C3)c2)C1
- TGI [1]: > 100 µM
- TGI [2]: > 100 µM
- TGI [3]: > 100 µM
- TGI [4]: > 100 µM
- TGI [5]: > 100 µM
- TGI [6]: > 100 µM
- TGI [7]: > 100 µM
- TGI [8]: > 100 µM
- TGI [9]: > 100 µM
- TGI [10]: > 100 µM
- TGI [11]: > 100 µM
- TGI [12]: > 100 µM
- TGI [13]: > 100 µM
- TGI [55]: > 100 µM
- TGI [14]: > 100 µM
- TGI [15]: > 100 µM
- TGI [16]: > 100 µM
- TGI [17]: > 100 µM
- TGI [18]: > 100 µM
- TGI [19]: > 100 µM
- TGI [20]: > 100 µM
- TGI [21]: > 100 µM
- TGI [22]: > 100 µM
- TGI [23]: > 100 µM
- TGI [24]: > 100 µM
- TGI [25]: > 100 µM
- TGI [56]: > 100 µM
- TGI [26]: > 100 µM
- TGI [27]: > 100 µM
- TGI [28]: > 100 µM
- TGI [29]: > 100 µM
- TGI [31]: > 100 µM
- TGI [32]: > 100 µM
- TGI [33]: > 100 µM
- TGI [34]: > 100 µM
- TGI [35]: > 100 µM
- TGI [36]: > 100 µM
- TGI [37]: > 100 µM
- TGI [38]: > 100 µM
- TGI [40]: > 100 µM
- TGI [41]: > 100 µM
- TGI [42]: > 100 µM
- TGI [57]: > 100 µM
- TGI [43]: > 100 µM
- TGI [44]: > 100 µM
- TGI [45]: > 100 µM
- TGI [46]: > 100 µM
- TGI [47]: > 100 µM
- TGI [48]: > 100 µM
- TGI [49]: > 100 µM
- TGI [50]: > 100 µM
- TGI [51]: > 100 µM
- TGI [52]: > 100 µM
- TGI [53]: > 100 µM
- TGI [54]: > 100 µM

Compound: O=c1[nH]c2cc([N+](=O)[O-])ccc2nc1/C(=N/Nc1ccccc1)C(O)c1ccccc1Cl (stereo not given)
- TGI [2]: > 100 µM
- TGI [3]: > 100 µM
- TGI [4]: > 100 µM
- TGI [5]: > 100 µM
- TGI [6]: > 100 µM
- TGI [7]: > 100 µM
- TGI [8]: > 100 µM
- TGI [9]: > 100 µM
- TGI [10]: > 100 µM
- TGI [11]: > 100 µM
- TGI [12]: > 100 µM
- TGI [13]: > 100 µM
- TGI [14]: > 100 µM
- TGI [15]: > 100 µM
- TGI [16]: > 100 µM
- TGI [17]: > 100 µM
- TGI [18]: > 100 µM
- TGI [19]: > 100 µM
- TGI [20]: > 100 µM
- TGI [21]: > 100 µM
- TGI [58]: > 100 µM
- TGI [23]: > 100 µM
- TGI [24]: > 100 µM
- TGI [25]: > 100 µM
- TGI [56]: > 100 µM
- TGI [27]: > 100 µM
- TGI [28]: > 100 µM
- TGI [29]: > 100 µM
- TGI [30]: > 100 µM
- TGI [31]: > 100 µM
- TGI [32]: > 100 µM
- TGI [33]: > 100 µM
- TGI [34]: > 100 µM
- TGI [35]: > 100 µM
- TGI [36]: > 100 µM
- TGI [37]: > 100 µM
- TGI [38]: > 100 µM
- TGI [39]: > 100 µM
- TGI [40]: > 100 µM
- TGI [41]: > 100 µM
- TGI [42]: 36.3 µM
- TGI [57]: > 100 µM
- TGI [43]: > 100 µM
- TGI [44]: > 100 µM
- TGI [45]: > 100 µM
- TGI [46]: 64.5 µM
- TGI [47]: > 100 µM
- TGI [48]: > 100 µM
- TGI [49]: > 100 µM
- TGI [50]: > 100 µM
- TGI [51]: > 100 µM
- TGI [52]: > 100 µM
- TGI [53]: > 100 µM
- TGI [54]: > 100 µM

Compound: CN(C)CC/C(=N\Nc1ccc([N+](=O)[O-])cc1)c1ccccc1
- TGI [1]: 20.5 µM
- TGI [2]: 30.5 µM
- TGI [3]: 18.1 µM
- TGI [4]: 23.8 µM
- TGI [5]: 26.8 µM
- TGI [6]: 17.6 µM
- TGI [7]: 15.2 µM
- TGI [8]: 30.8 µM
- TGI [9]: 29.1 µM
- TGI [10]: 30.6 µM
- TGI [11]: 25.9 µM
- TGI [12]: 39.9 µM
- TGI [13]: 28.2 µM
- TGI [14]: 15.9 µM
- TGI [15]: 28.5 µM
- TGI [16]: 27.1 µM
- TGI [17]: 28.5 µM
- TGI [18]: 16.3 µM
- TGI [20]: 29.8 µM
- TGI [21]: 28.9 µM
- TGI [22]: 27.2 µM
- TGI [58]: 20 µM
- TGI [23]: 27.1 µM
- TGI [24]: 21.2 µM
- TGI [25]: 27.2 µM
- TGI [56]: 37.2 µM
- TGI [26]: 17.2 µM
- TGI [27]: 23.6 µM
- TGI [28]: 15.3 µM
- TGI [29]: 24.5 µM
- TGI [30]: 24 µM
- TGI [31]: 19.3 µM
- TGI [32]: 23.6 µM
- TGI [34]: 25.3 µM
- TGI [36]: 6.02 µM
- TGI [37]: 27.1 µM
- TGI [38]: 25.5 µM
- TGI [39]: 28.2 µM
- TGI [40]: 21.3 µM
- TGI [41]: 24.9 µM
- TGI [42]: 27.2 µM
- TGI [57]: 22.3 µM
- TGI [43]: 18 µM
- TGI [44]: 20.3 µM
- TGI [45]: 17.1 µM
- TGI [47]: 28.5 µM
- TGI [49]: 31.2 µM
- TGI [50]: 26.5 µM
- TGI [51]: 6.81 µM
- TGI [52]: 22.3 µM
- TGI [53]: 27.4 µM
- TGI [54]: 29.9 µM

Reference: PubChem BioAssay (NCI)
